Reference: BigSolDB 2.1

Nc1cccc2ccncc12
solubility (mole fraction)
Settings | in DMF | in acetone | in acetonitrile | in ethanol | in ethylene glycol | in isopropanol | in methanol | in n-propanol | in propylene glycol | in water
278.15 K | 0.00564 | 0.00309 | 0.00458 | 0.00135 | 0.000113 | 0.00283 | 0.000354 | 0.00359 | 0.000176 | 3.46e-05
283.15 K | 0.00693 | 0.00371 | 0.00539 | 0.00161 | 0.000132 | 0.00344 | 0.000411 | 0.0042 | 0.000211 | 4e-05
288.15 K | 0.00832 | 0.00439 | 0.00651 | 0.00191 | 0.000156 | 0.00401 | 0.000483 | 0.00497 | 0.000254 | 4.6e-05
293.15 K | 0.01 | 0.00532 | 0.00789 | 0.0022 | 0.000183 | 0.00477 | 0.000559 | 0.00593 | 0.000304 | 5.45e-05
298.15 K | 0.0119 | 0.00636 | 0.00939 | 0.00261 | 0.00022 | 0.00566 | 0.000664 | 0.007 | 0.000366 | 6.21e-05
303.15 K | 0.0141 | 0.00752 | 0.0111 | 0.00308 | 0.000261 | 0.00664 | 0.000773 | 0.00831 | 0.000433 | 7.2e-05
308.15 K | 0.0167 | 0.00896 | 0.0131 | 0.00365 | 0.000313 | 0.00784 | 0.000919 | 0.00984 | 0.000516 | 8.42e-05
313.15 K | 0.0196 | 0.0105 | 0.0156 | 0.0043 | 0.000367 | 0.00934 | 0.00107 | 0.0115 | 0.000608 | 9.8e-05
318.15 K | 0.023 | 0.0122 | 0.0182 | 0.00508 | 0.000429 | 0.0109 | 0.00128 | 0.0135 | 0.000718 | 0.000113
323.15 K | 0.0267 | 0.0143 | 0.0219 | 0.00602 | 0.000505 | 0.0128 | 0.00151 | 0.0158 | 0.00085 | 0.000132
